{
  "source": "patent US10335380B2",
  "about": "“Compounds suitable for the treatment of myeloproliferative neoplasms as well as methods for the diagnosis/prognosis of myeloproliferative neoplasms” (CNIC Fundacion Centro Nacional De investigaciones …, priority 2013, dated 2019)",
  "key": {"[1]": {"test_system": "CD45+ haematopoietic cells from BM of Nes-gfp;Mx1-cre;JAK2-V617F mice and control littermates", "test": "Colony-forming units in culture (CFU-C) with drug added in vitro", "assay_type": "cell-based, mouse", "settings": "scored after one week in culture", "procedure": "Colony-forming units in culture (CFU-C) assay was performed. […] Colonies of more than 50 cells were scored after 7 days of incubation at 37° C., 5% CO2, 20% O2 in a water-jacketed incubator. For CFU-F assays, BM CD45− Ter119− cells were plated into 6-well dishes and cultured in maintenance medium (α-MEM, 15% FCS with antibiotics). After 10-12 days in culture, adherent cells were fixed with 100% methanol and stained with Giemsa stain (Sigma) to reveal fibroblastic clusters. Colonies with more than 50 cells were scored as CFU-F."}, "β2 receptors": {"target": "β2 receptors (Homo sapiens, UniProt P07550)", "sequence (P07550 whole entry)": "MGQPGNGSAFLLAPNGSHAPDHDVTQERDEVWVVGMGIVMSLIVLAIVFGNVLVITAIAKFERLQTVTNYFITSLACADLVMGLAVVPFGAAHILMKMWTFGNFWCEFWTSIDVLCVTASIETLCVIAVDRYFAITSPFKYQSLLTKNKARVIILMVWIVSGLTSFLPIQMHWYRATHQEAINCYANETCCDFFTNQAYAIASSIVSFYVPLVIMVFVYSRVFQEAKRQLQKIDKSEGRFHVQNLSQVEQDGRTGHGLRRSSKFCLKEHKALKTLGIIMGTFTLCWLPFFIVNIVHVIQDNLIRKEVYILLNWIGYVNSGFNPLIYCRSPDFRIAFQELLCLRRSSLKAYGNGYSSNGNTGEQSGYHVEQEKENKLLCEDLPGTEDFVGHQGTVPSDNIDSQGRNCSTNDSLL", "settings": "read-out: Ki for β2 receptors; cited from earlier work"}, "[2]": {"test_system": "HSCs and MPN-initiating cells", "test": "Competitive repopulation assays using limiting cell dilutions", "assay_type": "in vivo", "procedure": "For quantification of HSC, BM cells from treated mice were used for competitive repopulation assays using limiting cell dilutions. Briefly, CD45.1+ competitor BM cells […] were transplanted into lethally irradiated CD45.2+ recipient mice, after mix with […] and 4×10^3 donor BM cells. Peripheral blood chimerism was assessed by flow cytometry every 2-4 weeks. Mice were sacrificed 16 weeks after the transplant and the BM LSK cell chimerism was assessed by flow cytometry. A minimum of 5% CD45.2+ chimerism in the LSK cell compartment was considered as positive in recipients of control BM cells. In recipients of mutant BM, mice were considered as positive (“leukaemic”) above 50% CD45.2+ chimerism. The software LCalc (StemCell Technologies) was used for quantification of HSCs and MPN-initiating cells in control and mutant donor BM, respectively."}, "[3]": {"test_system": "Nes-creERT2;iDTA mice depleted in nestin+ cells", "test": "BRL37344 treatment of Nes-creERT2;iDTA mice depleted in nestin+ cells, transplanted with MPN BM cells", "assay_type": "in vivo, mouse", "settings": "BRL37344 for 6 weeks", "procedure": "Age-matched, female wild-type C57BL/6J or Nes-gfp mice were used as recipients in bone marrow (BM) transplantation assays and for in vivo pharmacological treatments. […] Vehicle (saline solution) daily injections were performed in the same way. Unless indicated, treatment was initiated 4 weeks posttransplant, when animals evidenced peripheral blood signs of MPN. Mice were randomly distributed prior to treatment initiation, and disease development was monitored over time in peripheral blood samples, using an automated blood counter. […] The neuroprotective drug 4-methylcatechol (10 μg kg-1, i.p.) was injected once daily. The JAK inhibitor INCB018424 (S-Ruxilitinib, Abmole Bioscience) was administered by oral gavage (30 mg kg-1, twice per day separated 10-12 hours) in 0.5% hydroxypropylmethylcellulose (Sigma) after solubilisation in DMSO. The IL-1 receptor antagonist (Kineret, Sobi, Stockholm, Sweden) was administered by subcutaneous osmotic pumps (Alzet) infusing a continuous dosing of 40 mg kg-1 per day. Mice were sacrificed at different time points and subjected to complete necropsy; BM and spleen were analysed by histology and flow cytometry; femora and skull were used for immunostainings, and haematopoietic and stromal cells were additionally used for functional assays ex vivo."}, "[4]": {"test_system": "WT mice transplanted with control BM cells", "test": "In vivo treatment of WT mice transplanted with control BM cells (normal haematopoiesis)", "set-up": "species or system mouse", "procedure": "Age-matched, female wild-type C57BL/6J or Nes-gfp mice were used as recipients in bone marrow (BM) transplantation assays and for in vivo pharmacological treatments. Lethally irradiated (12 Gy) recipient mice were transplanted with 2×10^6 BM cells from Mx-Cre;JAK2V617F mice induced with plpC 8 weeks before, or from Cre-negative mice as disease-free controls. […] Vehicle (saline solution) daily injections were performed in the same way. Unless indicated, treatment was initiated 4 weeks posttransplant, when animals evidenced peripheral blood signs of MPN. Mice were randomly distributed prior to treatment initiation, and disease development was monitored over time in peripheral blood samples, using an automated blood counter. […] Mice were sacrificed at different time points and subjected to complete necropsy; BM and spleen were analysed by histology and flow cytometry; femora and skull were used for immunostainings, and haematopoietic and stromal cells were additionally used for functional assays ex vivo.\nBM cell extraction, flow cytometry and fluorescence-activated cell sorting For haematopoietic cell recovery, bones were crushed in a mortar, filtered through a 40-μm mesh to obtain single cell suspensions, and depleted of red blood cells by lysis in 0.15 M NH4Cl for 10 min at 4° C. […] Biotinylated antibodies were detected with fluorochrome-conjugated streptavidin (BD Biosciences). […]"}, "β1 receptors": {"target": "β1 receptors (Homo sapiens, UniProt P08588)", "sequence (P08588 whole entry)": "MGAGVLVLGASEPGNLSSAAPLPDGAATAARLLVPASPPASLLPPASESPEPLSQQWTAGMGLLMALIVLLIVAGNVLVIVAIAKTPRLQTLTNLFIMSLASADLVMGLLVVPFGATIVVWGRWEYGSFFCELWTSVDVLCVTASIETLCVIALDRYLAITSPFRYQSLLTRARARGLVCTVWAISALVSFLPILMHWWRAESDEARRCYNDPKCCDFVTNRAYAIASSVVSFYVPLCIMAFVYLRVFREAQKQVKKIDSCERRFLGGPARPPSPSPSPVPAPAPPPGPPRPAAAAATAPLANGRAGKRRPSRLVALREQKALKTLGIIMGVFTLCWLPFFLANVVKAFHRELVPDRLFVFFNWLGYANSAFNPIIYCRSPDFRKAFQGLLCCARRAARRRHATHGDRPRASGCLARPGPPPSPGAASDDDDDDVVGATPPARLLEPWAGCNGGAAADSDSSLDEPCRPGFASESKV", "settings": "read-out: Ki for β1 receptors; cited from earlier work"}},
  "note": "Entries after “also recorded” stand apart in the source; their conditions may differ.",
  "data": [
    {"smiles": "C[C@H](Cc1ccc(OCC(=O)O)cc1)NC[C@H](O)c1cccc(Cl)c1", "note": "[BRL37344, [4-[(2R)-2-[[(2R)-2-(3-clorophenyl)-2-hydroxyethyl]amino]propyl]phenoxy]acetic acid]", "values": [
      {"measurement": "growth of cultured haematopoietic progenitors (CFU-C)", "setting": "[1]", "result": "neither 4-methylcatechol nor BRL37344 affected"},
      {"measurement": "Ki", "setting": "β2 receptors", "result": 1120, "unit": "nM"},
      {"measurement": "reduction in leukemic stem cells (MPN-initiating cell frequency)", "setting": "[2]; BM cells from BRL37344-treated versus vehicle-treated MPN mice, 16 weeks after transplantation", "result": 4.5, "unit": "fold"},
      {"measurement": "normal HSC BM number", "setting": "[2]; control mice treated with BRL37344 over 4 weeks, starting 11 weeks after the transplant, non-significant", "result": "does not change"},
      {"measurement": "therapeutic effect of BRL37344 after in vivo depletion of nestin+ cells (blood counts)", "setting": "[3]; Nes-creERT2;iDTA versus control mice", "result": "reduces"},
      {"measurement": "leukocytosis in mice depleted in nestin+ cells", "setting": "[3]; started 2 weeks after transplantation combined with tamoxifen", "result": "not rescued"},
      {"measurement": "blood counts in wild-type mice", "setting": "[4]; BRL37344 2 mg kg-1 i.p. twice a day", "result": "did not affect"},
      {"measurement": "normal HSCs / normal haematopoiesis", "setting": "[4]; long-term BRL37344 treatment, 16 weeks, 2 mg kg-1 twice a day i.p.", "result": "did not compromise; also recorded: does not compromise"},
      {"measurement": "Ki", "setting": "β1 receptors", "result": 1750, "unit": "nM"}
    ]}
  ]
}
